Assay results: US20230310388A1, “Methods and Compositions for Treating Fungal Infections” (Neoculi Pty Ltd, priority 2020, published 2023)
Values after ≈ are worked out from the molar mass of the structure shown. Where two headings read alike, the source gives them in different places.

Experiments:
Malassezia pachydermatis = assay: MIC, mSAB broth microdilution (Example 1); assay type: cell-based
Text: There is no recommended Clinical & Laboratory Standards Institute (CLSI) standard for M. pachydermatis. In the literature there are a number of papers which have developed Minimum Inhibitory Concentration (MIC) methodology for Malassezia species isolated from both humans and animals (ie both lipophilic and non-lipophilic species). In all papers, the methodology has been altered from the original CLSI protocols in order to overcome four main problem areas involved in testing this yeast. • 1) Finding a suitable growth medium for Malassezia, especially the lipophilic species. […] When testing the azole group of anti-fungal agents, there is also the well known trailing end point problem with MIC determination. Trailing occurs when the turbidity continually decreases as the drug concentration increases but the suspension fails to become optically clear (partial inhibition of growth over an extended range of antifungal concentrations). The following method was originally developed by Eichenberg et al. (2003) (mSAB broth microdilution method). The mSAB method was devised to follow as closely as possible the CLSI guidelines whilst still allowing for the distinct biochemical and growth requirements of M. pachydermatis. Sabouraud dextrose broth with 1% Tween 80 was chosen as the assay medium as it allowed for excellent growth of the organism. Higher inoculum concentrations (1-4×10^6 CFU/ml) and increased time of incubation (48 to 72 hours) were used to enable sufficient growth of the test strains.

Candida albicans [1] = assay: CLSI broth microdilution MIC (Example 4); assay type: cell-based
Outline: (§1)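 CLSI broth microdilution in RPMI 1640 with two-fold compound dilutions and inoculum about 2×10^3 cells/mL. Plates incubated 35° C for 24-48 hours; MICs determined in duplicate, with a third test when the duplicates differed.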

Cryptococcus neoformans [2] = assay: CLSI broth microdilution MIC (Example 4); assay type: cell-based
Outline: as §1

Candida albicans [3] = assay: CLSI broth microdilution MIC (Example 5); assay type: cell-based; details: for MIC: Candida albicans, read-out: MIC
Outline: (§2)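 Broth microdilution per CLSI in RPMI 1640 with twofold compound dilutions, inoculum about 2×10^3 cells/mL. Plates incubated at 35° C for 24-48 hours. MIC determined per isolate in duplicate, with a third repeat when the two values differed.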

Cryptococcus neoformans [4] = assay: CLSI broth microdilution MIC (Example 5); assay type: cell-based
Outline: as §2

Candida albicans [5] = assay: CLSI broth microdilution MIC (Example 6); assay type: cell-based; details: read-out: MIC
Outline: (§3)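 CLSI broth microdilution in RPMI 1640, compounds serially double-diluted, inoculum about 2×10^3 cells/mL. Incubation at 35° C for 24-48 hours. MICs determined per isolate in duplicate, with a third repeat if values differed.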

Cryptococcus neoformans [6] = assay: CLSI broth microdilution MIC (Example 6); assay type: cell-based; details: for MIC: Cryptococcus neoformans, read-out: MIC
Outline: as §3

C. gattii = assay: CLSI broth microdilution MIC (Example 6); assay type: cell-based, Cryptococcus gattii
Outline: as §3

[7] = ATCC90028, Candida albicans ATCC 90028

N=C(N/N=C/c1ccc(Cl)cc1)N/N=C/c1ccc(Cl)cc1 [NCL812, robenidine, reference compound]
MIC (Malassezia pachydermatis; Malassezia isolate M-036): 2 µg/mL (≈ 5.98 µM) | MIC (Malassezia pachydermatis; Malassezia isolate M-066): 2 µg/mL (≈ 5.98 µM) | MIC (Malassezia pachydermatis; Malassezia pachydermatis, Malassezia isolate M1-017, read-out: MIC): 2 µg/mL (≈ 5.98 µM) | MIC (Malassezia pachydermatis; Malassezia pachydermatis, Malassezia isolate M-018, read-out: MIC): 2 µg/mL (≈ 5.98 µM) | MIC (Malassezia pachydermatis; Malassezia pachydermatis, Malassezia isolate M-020, read-out: MIC): 2 µg/mL (≈ 5.98 µM) | MIC (Malassezia pachydermatis; Malassezia pachydermatis, Malassezia isolate M-036, read-out: MIC): 1 µg/mL (≈ 2.99 µM) | MIC (Malassezia pachydermatis; Malassezia pachydermatis, Malassezia isolate M-037, read-out: MIC): 2 µg/mL (≈ 5.98 µM) | MIC (Malassezia pachydermatis; Malassezia pachydermatis, Malassezia isolate M-038, read-out: MIC): 1 µg/mL (≈ 2.99 µM) | MIC (Malassezia pachydermatis; Malassezia pachydermatis, Malassezia isolate M-040, read-out: MIC): 2 µg/mL (≈ 5.98 µM) | MIC (Malassezia pachydermatis; Malassezia pachydermatis, Malassezia isolate M-052, read-out: MIC): 1 µg/mL (≈ 2.99 µM) | MIC (Malassezia pachydermatis; Malassezia pachydermatis, Malassezia isolate M-055, read-out: MIC): 1 µg/mL (≈ 2.99 µM) | MIC (Malassezia pachydermatis; Malassezia pachydermatis, Malassezia isolate M-060, read-out: MIC): 1 µg/mL (≈ 2.99 µM) | MIC (Malassezia pachydermatis; Malassezia pachydermatis, Malassezia isolate M-066, read-out: MIC): 1 µg/mL (≈ 2.99 µM) | MIC (Malassezia pachydermatis; Malassezia pachydermatis, Malassezia isolate M-067, read-out: MIC): 1 µg/mL (≈ 2.99 µM) | MIC (Malassezia pachydermatis; Malassezia pachydermatis, Malassezia isolate M-069, read-out: MIC): 2 µg/mL (≈ 5.98 µM) | activity against all 13 isolates of Malassezia pachydermatis (Malassezia pachydermatis; summary in words): highly active | MIC (Candida albicans [1]; ATCC90028, read-out: MIC at 24-48 hours, Candida albicans ATCC 90028): 2 µg/mL (≈ 5.98 µM) | MIC (Candida albicans [1]; read-out: MIC at 24-48 hours, Candida albicans SA3): 2 µg/mL (≈ 5.98 µM) | antifungal activity against the two isolates of Candida albicans (Candida albicans [1]; summary in words): high antifungal activity | MIC at 24-48 hours (Cryptococcus neoformans [2]; Cryptococcus neoformans SA2): 2 µg/mL (≈ 5.98 µM) | MIC (Cryptococcus neoformans [2]; read-out: MIC at 24-48 hours, Cryptococcus neoformans SA1): 2 µg/mL (≈ 5.98 µM) | MIC (Cryptococcus neoformans [2]; two isolates of Cryptococcus neoformans, summary range, read-out: MICs): 1 to 16 µg/mL (≈ 2.99 to 47.9 µM) | MIC (Candida albicans [3]; [7]): 2 µg/mL (≈ 5.98 µM) | MIC (Candida albicans [3]; clinical isolate C. albicans 12-93301752 Azole Resistant): 2 µg/mL (≈ 5.98 µM) | MIC (Candida albicans [3]; clinical isolate C. albicans 14-90045999 Azole Resistant): 2 µg/mL (≈ 5.98 µM) | MIC (Candida albicans [3]; clinical isolate C. albicans 15-45171061): 1 µg/mL (≈ 2.99 µM) | MIC (Candida albicans [3]; clinical isolate C. albicans 15-91329871): 2 µg/mL (≈ 5.98 µM) | MIC (Candida albicans [3]; clinical isolate C. albicans 16-24136919 Azole Resistant): 2 µg/mL (≈ 5.98 µM) | MIC (Candida albicans [3]; clinical isolate C. albicans 16-46177400): 4 µg/mL (≈ 12 µM) | MIC (Candida albicans [3]; clinical isolate C. albicans 16-90050810): 2 µg/mL (≈ 5.98 µM) | MIC (Candida albicans [3]; clinical isolate C. albicans 16-90054237): 2 µg/mL (≈ 5.98 µM) | MIC (Candida albicans [3]; clinical isolate C. albicans 18-144-00196): 0.5 µg/mL (≈ 1.5 µM) | MIC (Candida albicans [3]; clinical isolate C. albicans 18-148-08188 Azole Resistant): 1 µg/mL (≈ 2.99 µM) | MIC (Candida albicans [3]; C. albicans SA3): 2 µg/mL (≈ 5.98 µM) | activity against all tested isolates of Cryptococcus neoformans and Candida albicans (Candida albicans [3]; summary in words): active | activity against one or more isolates of Cryptococcus neoformans and Candida albicans (Candida albicans [3]; summary in words): highly active | MIC (Cryptococcus neoformans [4]; Cryptococcus neoformans SA1, read-out: MIC): 2 µg/mL (≈ 5.98 µM) | MIC (Cryptococcus neoformans [4]; Cryptococcus neoformans SA2): 2 µg/mL (≈ 5.98 µM) | MIC (Candida albicans [5]; [7]): 2 µg/mL (≈ 5.98 µM) | MIC (Candida albicans [5]; Candida albicans, C. albicans SA3): 2 µg/mL (≈ 5.98 µM) | MIC (Cryptococcus neoformans [6]; Cryptococcus neoformans SA1): 2 µg/mL (≈ 5.98 µM) | MIC (Cryptococcus neoformans [6]; Cryptococcus neoformans SA2): 2 µg/mL (≈ 5.98 µM) | MIC (Cryptococcus neoformans [6]; human clinical isolate C. neoformans serotype A/D hybrid): 16 µg/mL (≈ 47.9 µM) | MIC (Cryptococcus neoformans [6]; human clinical isolate C. neoformans var grubii 16-90050434): 32 µg/mL (≈ 95.7 µM) | MIC (Cryptococcus neoformans [6]; human clinical isolate C. neoformans var grubii 17-90028233): 32 µg/mL (≈ 95.7 µM) | MIC (Cryptococcus neoformans [6]; human clinical isolate C. neoformans var grubii 17-93996464): 16 µg/mL (≈ 47.9 µM) | activity against all isolates (Cryptococcus neoformans [6]; Example 6 isolates, summary in words): active | activity against one or more isolates of Candida albicans and Cryptococcus neoformans (Cryptococcus neoformans [6]; summary in words): highly active | MIC (C. gattii; Cryptococcus gattii, human clinical isolate C. gattii 17-90028217, read-out: MIC): 16 µg/mL (≈ 47.9 µM) | MIC (C. gattii; human clinical isolate C. gattii 16-90050373): 16 µg/mL (≈ 47.9 µM) | MIC (C. gattii; human clinical isolate C. gattii 17-90028211): 16 µg/mL (≈ 47.9 µM)
